This is an account of results in publication PMC3705364, “Biochemical and Electrophysiological Characterization of Two Sea Anemone Type 1 Potassium Toxins from a Geographically Distant Population of Bunodosoma caissarum” (Marine Drugs, 2013).

One series addresses T1, Shaker IR (Drosophila melanogaster, UniProt P08510, DEL6-46).
T1 construct: expressed in transfected cells; host or cells: Xenopus laevis oocytes injected with cRNA
Nature of the series: Two-electrode voltage-clamp, X. laevis oocytes expressing Shaker IR. The class given is cell-based, insect. The settings on record: mean ± standard error. The procedure: (§1) Stage V–VI of X. laevis oocytes were harvested by partial ovariectomy under anesthesia (3-aminobenzoic acid ethyl ester methanesulfonate salt, 0.5 g/L from Sigma-Aldrich Co., Saint Louis, MO, USA). The oocytes were defolliculated for 2 h by treatment with 2 mg/mL collagenase (Sigma-Aldrich Co., Saint Louis, MO, USA) in Ca^2+ free ND96 solution (in mM: 96 NaCl; 2 KCl; 1 MgCl2; 5 HEPES adjusted pH 7.4). For the expression of KV channels (KV1.1–KV1.6, KV2.1, KV3.1, KV4.2, KV4.3, hERG and the insect channel Shaker IR), the linearized plasmids were transcribed using the T7 or SP6 mMessage-mMachine transcription kit (Ambion, Austin, TX, USA). Oocytes were injected with 50 nL of cRNA at a concentration of 1 ng/nL using a microinjector (Drummond Scientific, Broomall, PA, USA). The oocytes were maintained in a ND96 solution (in mM: 96 NaCl, 2 KCl, 1.8 CaCl2, 2 MgCl2 and 5 HEPES; adjusted pH 7.4), supplemented with 50 µg/mL gentamicin sulfate.
Two-electrode voltage-clamp recordings were performed at room temperature (18–22 °C) using a Geneclamp 500 amplifier (Molecular Devices, Sunnyvale, CA, USA) controlled by a pClamp data acquisition system (Axon Instruments, Union City, CA, USA). Whole-cell currents from oocytes were recorded from 1 to 3 days after injection. Bath solution was the same ND96 solution described above. Voltage and current electrodes were filled with 3 M KCl. Resistances of both electrodes were kept between 0.8 and 1.0 ΩM. The elicited currents were filtered at 500 Hz using a four-pole lowpass Bessel filter. Leak subtraction was performed using a −P/4 protocol. KV1.1–KV1.6 and Shaker IR currents were evoked by 500 ms depolarizations to 0 mV, followed by a 500 ms pulse to −50 mV, from a holding potential of −90 mV. Current traces of hERG channels were elicited by applying a +40 mV prepulse for 2 s, followed by a step to −120 mV for 2 s. KV3.1, KV 4.2 and KV4.3 currents were elicited by 500 ms pulses to +20 mV from a holding potential of −90 mV. To assess the concentration-response relationships, data were fitted with the Hill equation: y = 100/[1 + (EC50/[toxin])h] (1) where y is the amplitude of the toxin-induced effect, EC50 is the toxin concentration at half maximal efficacy, [toxin] is the toxin concentration and h is the Hill coefficient. In order to investigate the current-voltage relationship, current traces were evoked by 10 mV depolarization steps from a holding potential of −90 mV. […]
Comparison of two sample means was made using a paired Student’s t test (p < 0.05). […] All data were analyzed using Clampfit 10.3 (Molecular Devices, Sunnyvale, CA, USA) and Origin 7.5 software (Origin Lab., Northampton, MA, USA).

For series [1], the system named is KV1.1–KV1.6, KV2.1, KV3.1, KV4.2, KV4.3, hERG and Shaker IR. As to the kind of experiment: Electrophysiological screening on 12 cloned KV channel isoforms in X. laevis oocytes. The class given is cell-based, rat, human, insect. On the procedure: The pharmacological profile of BcsTx-1 and -2 were determined on a wide range of twelve KV channels (rKV1.1, rKV1.2, hKV1.3, rKV1.4, rKV1.5, rKV1.6, rKV2.1, rKV3.1, rKV4.2, rKV4.3, hERG and the insect channel Shaker IR; r: rat and h: human). Channels were expressed in X. laevis oocytes, and their currents were recorded by using two-electrode voltage-clamp technique. BcsTx1 (0.5 µM) inhibited rKv1.1, rKv1.2, rKv1.3, rKv1.6 and Shaker IR channels with 44% ± 2%, 100%, 100%, 88% ± 3% and 64% ± 4%, respectively (Figure 6). […] Type 1 toxins, such as BgK and ShK, have been extensively characterized. […] Some of the other type 1 toxins were indirectly assayed by competitive inhibition of the binding of ^125I-dendrotoxins, allowing the conclusion that they will show activity on KV1.1, KV1.2 and/or KV1.6, since dendrotoxins only block the current of these KV channels. […] Thus, it is worth mentioning that our work represents the first electrophysiological characterization of type 1 sea anemone toxin activity on cloned Shaker IR insect channel.
as §1
Two-electrode voltage-clamp recordings were performed at room temperature (18–22 °C) using a Geneclamp 500 amplifier (Molecular Devices, Sunnyvale, CA, USA) controlled by a pClamp data acquisition system (Axon Instruments, Union City, CA, USA). Whole-cell currents from oocytes were recorded from 1 to 3 days after injection. Bath solution was the same ND96 solution described above. Voltage and current electrodes were filled with 3 M KCl. Resistances of both electrodes were kept between 0.8 and 1.0 ΩM. The elicited currents were filtered at 500 Hz using a four-pole lowpass Bessel filter. Leak subtraction was performed using a −P/4 protocol. KV1.1–KV1.6 and Shaker IR currents were evoked by 500 ms depolarizations to 0 mV, followed by a 500 ms pulse to −50 mV, from a holding potential of −90 mV. Current traces of hERG channels were elicited by applying a +40 mV prepulse for 2 s, followed by a step to −120 mV for 2 s. KV3.1, KV 4.2 and KV4.3 currents were elicited by 500 ms pulses to +20 mV from a holding potential of −90 mV. To assess the concentration-response relationships, data were fitted with the Hill equation: y = 100/[1 + (EC50/[toxin])h] (1) where y is the amplitude of the toxin-induced effect, EC50 is the toxin concentration at half maximal efficacy, [toxin] is the toxin concentration and h is the Hill coefficient. In order to investigate the current-voltage relationship, current traces were evoked by 10 mV depolarization steps from a holding potential of −90 mV. The activation curves were fitted with a Boltzmann relationship of the form: 1/(1 + e^[−(V − V^1/2)/^S^]) (2) where V1/2 is the voltage for half-maximal activation and s is the slope factor. The activation kinetics were obtained by mono-exponential fits to the raw current traces.

Where a SMILES comes first, the peptide text is derived from it. Bridges are numbered along the chain shown (N, C = ends).

T1 sequence (P08510 with tags, fused parts or gaps DEL6-46): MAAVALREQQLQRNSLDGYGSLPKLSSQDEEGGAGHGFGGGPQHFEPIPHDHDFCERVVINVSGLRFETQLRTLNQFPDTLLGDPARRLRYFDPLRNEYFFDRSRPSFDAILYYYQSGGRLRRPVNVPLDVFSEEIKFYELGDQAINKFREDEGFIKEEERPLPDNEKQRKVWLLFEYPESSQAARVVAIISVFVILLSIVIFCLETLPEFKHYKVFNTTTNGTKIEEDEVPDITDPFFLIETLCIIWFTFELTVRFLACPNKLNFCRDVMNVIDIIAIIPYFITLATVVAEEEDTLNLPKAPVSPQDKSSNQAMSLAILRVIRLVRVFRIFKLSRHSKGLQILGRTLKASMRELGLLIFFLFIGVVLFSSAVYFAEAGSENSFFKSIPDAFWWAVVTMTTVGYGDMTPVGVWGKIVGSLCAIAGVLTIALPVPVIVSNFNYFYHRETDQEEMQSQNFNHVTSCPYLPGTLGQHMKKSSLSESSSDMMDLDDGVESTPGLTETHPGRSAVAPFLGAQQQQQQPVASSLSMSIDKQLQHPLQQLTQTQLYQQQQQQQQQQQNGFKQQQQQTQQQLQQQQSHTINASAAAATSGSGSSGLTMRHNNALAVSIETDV

On to `CC(C)C[C@@H]1NC(=O)[C@H](CCCCN)NC(=O)[C@H](C)NC(=O)[C@H](Cc2c[nH]cn2)NC(=O)[C@H](CCC(N)=O)NC(=O)[C@@H]2CSSC[C@@H]3NC(=O)[C@H](CC(N)=O)NC(=O)[C@H](C)NC(=O)[C@H](CCCNC(=N)N)NC(=O)[C@H](Cc4ccc(O)cc4)NC(=O)[C@H](CCCCN)NC(=O)[C@H](CCC(N)=O)NC(=O)[C@H](CO)NC(=O)[C@H](CC(N)=O)NC(=O)[C@H](CCCCN)NC(=O)[C@H](CSSC[C@H](NC(=O)[C@H]([C@@H](C)O)NC(=O)[C@H](CCCCN)NC(=O)[C@H](C)NC3=O)C(=O)NCC(=O)N3CCC[C@H]3C(=O)N[C@H](C(=O)O)CSSC[C@H](NC(=O)[C@H](C)N)C(=O)N[C@@H](CCCCN)C(=O)N[C@@H](CC(=O)O)C(=O)NCC(=O)N[C@@H](Cc3ccccc3)C(=O)N3CCC[C@H]3C(=O)N[C@@H]([C@@H](C)O)C(=O)N[C@@H](C)C(=O)N[C@@H]([C@@H](C)O)C(=O)N2)NC(=O)[C@H](CC(N)=O)NC(=O)CNC(=O)[C@H](C(C)C)NC1=O` [BcsTx2] (H-ACKDGFPTATCQHAKLVGNCKNSQKYRANCAKTCGPC-OH; disulfide 2-37, 11-30, 20-34; C-terminus assumed), for which the inhibition at 3 µM on Shaker IR (3 µM, n ≥ 3, read-out: inhibition of Shaker IR current) amounted to 94%. The compound also yielded an IC50 at Shaker IR (TEVC, 18–22 °C, ND96 pH 7.4, 500 ms depolarizations to 0 mV from −90 mV, Hill fit, n ≥ 3) of 49.1 ± 3.44 nM. In series [1] (3 µM, 12 KV isoforms), the “selectivity among KV channels (in words)” value was “selectively blocks Shaker channels subfamily”. In addition, the “potency class on KV channels (in words)” value in series [1] (summary of IC50 values, compared with BgK and type 2 toxins) was “within the nanomolar range”. For the same compound, the “affinity/potency order among KV channels (in words)” value in series [1] (summary of the electrophysiological characterization) was “potently blocked rKv1.6 over hKv1.3, rKv1.1, Shaker IR and rKv1.2”.

The term inhibition denotes the drop in the measured response relative to a control, in per cent. By IC50 is commonly meant the concentration needed to halve the response being measured.
